Assay results: US20260216216A1, “(N-ALKYLDIHYDROL-2H-OXAZINYL)-CANNABIDIOL AS ANTI-PROLIFERATIVE AGENT AND PROCESS FOR PREPARATION THEREOF” (COUNCIL OF SCIENTIFIC AND INDUSTRIAL RESEARCH, priority 2022, published 2026)
Where two headings read alike, the source gives them in different places.

Experiments:
[1] = test system: A549 (lung cancer) cell line; assay: SRB in-vitro cytotoxicity assay, A549; conditions: Homo sapiens
Procedure: (§1) All the ring annulated analogues of cannabinoid were evaluated for their cytotoxicity against number of human cancer cell lines. To evaluate the in-vitro cytotoxicity, a sulphorhodamine B (SRB) assay was carried out. SRB is a negatively charged pink aminoxanthine dye that binds to the basic amino acid of cells in mildly acidic conditions and is removed in basic conditions. […] When cells reached 60-70% confluency, trypsinized and seeded in 96 well plates according to their inoculation density and incubated for 24 hours to attain their proper morphology. Next-day cells were again incubated for 48 hours with test compounds or paclitaxel (positive control). Next, cells were fixed with 50% of ice-cold TCA for 1 hours, washed with distilled water, and kept for air drying. Air-dried plates were then stained with 0.4% SRB dye for 30 minutes and subsequently with water and 1% v/v glacial acetic acid were then kept for air drying. […] The viability of cells is measured based on bound dye after fixation, which is measured by absorbance at 540 nm.

[2] = test system: U251 (glioblastoma) cell line; assay: SRB in-vitro cytotoxicity assay, U251; conditions: Homo sapiens
Procedure: as §1

in vitro = conditions: human
Procedure: as §1

[3] = test system: HEK-293 (normal cell lines); assay: SRB in-vitro cytotoxicity assay, HEK-293; conditions: Homo sapiens, HEK293, read-out: inhibition against HEK-293 cell lines
Procedure: as §1

[4] = test system: PC-3 (prostate cancer) cell line; assay: SRB in-vitro cytotoxicity assay, PC-3; conditions: Homo sapiens
Procedure: as §1

[5] = test system: HCT-116 (colorectal cancer) cell line; assay: SRB in-vitro cytotoxicity assay, HCT-116; conditions: Homo sapiens
Procedure: as §1

[6] = test system: Mia-PaCa (pancreatic cancer) cell line; assay: SRB in-vitro cytotoxicity assay, Mia-PaCa; conditions: Homo sapiens
Procedure: as §1

[7] = test system: MCF-7 (breast cancer) cell line; assay: SRB in-vitro cytotoxicity assay, MCF-7; conditions: Homo sapiens
Procedure: as §1

CC(=O)O[C@H]1C(=O)[C@@]2(C)[C@H]([C@H](OC(=O)c3ccccc3)[C@]3(O)C[C@H](OC(=O)[C@H](O)[C@@H](NC(=O)c4ccccc4)c4ccccc4)C(C)=C1C3(C)C)[C@]1(OC(C)=O)CO[C@@H]1C[C@@H]2O [Paclitaxel, paclitaxel, reference compound]
> 70%: inhibition at 20 µM ([1]; A549, 48 h, read-out: Cytotoxicity (in vitro cell inhibition) A549) | inhibition at 20 µM ([1]; A549, read-out: inhibition against A549 cell lines) | inhibition at 20 µM ([2]; U-251, 48 h, read-out: Cytotoxicity (in vitro cell inhibition) U251) | inhibition at 20 µM ([2]; U-251, read-out: inhibition against U251 cell lines) | inhibition at 48 h, 20 µM (in vitro) | inhibition at 20 µM [3] | inhibition at 20 µM ([4]; 48 h, read-out: Cytotoxicity (in vitro cell inhibition) PC3) | inhibition at 20 µM ([4]; PC-3, read-out: inhibition against PC3 cell lines) | inhibition at 20 µM ([5]; HCT-116, 48 h, read-out: Cytotoxicity (in vitro cell inhibition) HCT-116) | inhibition at 20 µM ([5]; HCT-116, read-out: inhibition against HCT-116 cell lines) | inhibition at 20 µM ([6]; MIA PaCa-2, 48 h, read-out: Cytotoxicity (in vitro cell inhibition) Mia-PaCa) | inhibition at 20 µM ([6]; MIA PaCa-2, read-out: inhibition against Mia-PaCa cell lines) | inhibition at 20 µM ([7]; MCF7, 48 h, read-out: Cytotoxicity (in vitro cell inhibition) MCF-7) | inhibition at 20 µM ([7]; MCF7, read-out: inhibition against MCF-7 cell lines)
